Source: patent US6172066A, “Dihydropyrimidines and uses thereof” (Synaptic Pharmaceutical Corporation, priority 1997, dated 2001)
Structures can show the parent of a compound that is named as a salt.

Columns and labels:
[1] = biological target: T1, α1B Human Adrenergic Receptor (Homo sapiens, UniProt P35368); experiment: Radioligand binding, [3H]prazosin displacement, cloned human α1B receptor (LM(tk-) cell membranes); conditions: [3H]prazosin 0.5 nM, 37° C., 20 min; for Ki: read-out: hα1B pKi (converted)
T1 construct: The entire coding region of a1B (1563 bp); expressed in transfected cells
T1 sequence (P35368 1-520): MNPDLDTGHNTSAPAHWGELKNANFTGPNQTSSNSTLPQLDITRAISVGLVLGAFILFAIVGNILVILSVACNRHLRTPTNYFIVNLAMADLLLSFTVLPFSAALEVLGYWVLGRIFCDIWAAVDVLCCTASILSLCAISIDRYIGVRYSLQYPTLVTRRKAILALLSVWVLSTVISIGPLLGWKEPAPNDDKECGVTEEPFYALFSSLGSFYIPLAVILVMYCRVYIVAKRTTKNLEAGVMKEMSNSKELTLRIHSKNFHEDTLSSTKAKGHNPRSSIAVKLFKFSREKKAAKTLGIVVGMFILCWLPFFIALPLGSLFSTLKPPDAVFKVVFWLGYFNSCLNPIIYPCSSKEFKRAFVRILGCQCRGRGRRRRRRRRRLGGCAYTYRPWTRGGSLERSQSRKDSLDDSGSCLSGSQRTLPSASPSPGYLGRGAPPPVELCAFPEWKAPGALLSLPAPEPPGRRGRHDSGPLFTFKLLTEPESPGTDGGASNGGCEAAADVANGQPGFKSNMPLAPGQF
Procedure: (§1) The activity of compounds at the different human receptors was determined in vitro using cultured cell lines that selectively express the receptor of interest. These cell lines were prepared by transfecting the cloned cDNA or cloned genomic DNA or constructs containing both genomic DNA and cDNA encoding the human α-adrenergic receptors as follows:
The entire coding region of a1B (1563 bp), including 200 base pairs and 5' untranslated sequence (5' UT) and 600 bp of 3' untranslated sequence (3' UT), was cloned into the EcoRI site of pCEXV-3 eukaryotic expression vector. The construct involved ligating the full-length containing EcoRI brainstem cDNA fragment from λ ZapII into the expression vector. Stable cell lines were selected as described above. The cell line used herein was designated L-α1B and was deposited with the American Type Culture Collection, 12301 Parklawn Drive, Rockville, Md. 20852, U.S.A. under the provisions of the Budapest Treaty for the International Recognition of the Deposit of Microorganisms for the Purposes of Patent Procedure. The cell line L-α1B was accorded ATCC Accession No. CRL 11139, on Sep. 25, 1992.
(§2) Transfected cells from culture flasks were scraped into 5 ml of 5 mM Tris-HCl, 5 mM EDTA, pH 7.5, and lysed by sonication. The cell lysates were centrifuged at 1000 rpm for 5 min at 4° C., and the supernatant was centrifuged at 30,000×g for 20 min at 4° C. The pellet was suspended in 50 mM Tris-HCl, 1 mM MgCl2, and 0.1% ascorbic acid at pH 7.5. Binding of the α1 antagonist [^3 H]prazosin (0.5 nM, specific activity 76.2 Ci/mmol) to membrane preparations of LM(tk-) cells was done in a final volume of 0.25 ml and incubated at 37° C. for 20 min. Nonspecific binding was determined in the presence of 10 μM phentolamine. The reaction was stopped by filtration through GF/B filters using a cell harvester. Inhibition experiments, routinely consisting of 7 concentrations of the tested compounds, were analyzed using a non-linear regression curve-fitting computer program to obtain Ki values.

[2] = biological target: T2, α1D Human Adrenergic Receptor (Homo sapiens, UniProt P25100); experiment: Radioligand binding, [3H]prazosin displacement, cloned human α1D receptor (LM(tk-) cell membranes); conditions: [3H]prazosin 0.5 nM, 37° C., 20 min; for Ki: read-out: hα1D pKi (converted)
T2 construct: The entire coding region of α1D (1719 bp); expressed in transfected cells
T2 sequence (P25100 1-572): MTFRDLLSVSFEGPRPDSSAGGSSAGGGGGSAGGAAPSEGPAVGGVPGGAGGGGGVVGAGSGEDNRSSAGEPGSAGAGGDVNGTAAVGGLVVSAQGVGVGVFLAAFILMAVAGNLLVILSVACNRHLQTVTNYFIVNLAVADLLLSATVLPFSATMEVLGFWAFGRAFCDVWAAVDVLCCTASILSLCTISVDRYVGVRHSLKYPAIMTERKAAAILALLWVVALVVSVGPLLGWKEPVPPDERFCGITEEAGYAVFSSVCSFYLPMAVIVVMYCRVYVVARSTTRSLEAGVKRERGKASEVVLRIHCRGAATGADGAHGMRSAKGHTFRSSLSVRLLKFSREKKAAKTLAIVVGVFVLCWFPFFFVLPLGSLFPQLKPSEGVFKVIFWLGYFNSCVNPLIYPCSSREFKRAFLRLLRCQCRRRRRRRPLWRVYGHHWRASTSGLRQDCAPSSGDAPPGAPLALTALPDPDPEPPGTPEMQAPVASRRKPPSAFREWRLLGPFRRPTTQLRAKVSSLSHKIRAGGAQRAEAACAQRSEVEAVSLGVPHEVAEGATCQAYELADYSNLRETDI
Procedure: as §1
The entire coding region of α1D (1719 bp), including 150 base pairs of 5' untranslated sequence (5' UT) and 300 bp of 3' untranslated sequence (3' UT), was cloned into the BamHI and ClaI sites of the polylinker-modified eukaryotic expression vector pCEXV-3, called EXJ.HR. The construct involved the ligation of partial overlapping human lymphocyte genomic and hippocampal cDNA clones: 5' sequence were contained on a 1.2 kb SmaI-XhoI genomic fragment (the vector-derived BamHI site was used for subcloning instead of the internal insert-derived SmaI site) and 3' sequences were contained on an 1.3 kb XhoI-ClaI cDNA fragment (the ClaI site was from the vector polylinker). Stable cell lines were obtained by cotransfection with the plasmid α1A/EXJ (expression vector containing the α1A receptor gene (old nomenclature)) and the plasmid pGCcos3neo (plasmid containing the aminoglycoside transferase gene) into LM(tk-) cells using calcium phosphate technique. The cells were grown, in a controlled environment (37° C., 5% CO2), as monolayers in Dulbecco's modified Eagle's Medium (GIBCO, Grand Island, N.Y.) containing 25 mM glucose and supplemented with 10% bovine calf serum, 100 units/ml penicillin g, and 100 μg/ml streptomycin sulfate. Stable clones were then selected for resistance to the antibiotic G-418 (1 mg/ml), and membranes were harvested and assayed for their ability to bind [^3 H]prazosin as described below (see "Radioligand Binding assays").
The cell line expressing the human α1D receptor used herein was designated L-α1A (old nomenclature) and was deposited with the American Type Culture Collection, 12301 Parklawn Drive, Rockville, Md. 20852, U.S.A. under the provisions of the Budapest Treaty for the International Recognition of the Deposit of Microorganisms for the Purposes of Patent Procedure. The cell line expressing the human α1D receptor, was accorded ATCC Accession No. CRL 11138, and was deposited on Sep. 25, 1992.
as §2

Compound | hα1B pKi [1] | hα1D pKi [2] | Ki [1] | Ki [2]
cis-6-(3,4,5-Trifluorophenyl)-1-{N-[2-(4-cyano-4-phenyl-cyclohexylamino)ethyl]}-carboxamido-5-acetyl-4-methoxymethyl-2-oxo-1,2,3,6-tetrahydropyrimidine hydrochloride [Example 2] | 7.76 | 7.05 |  | 
COCC1=C(C(=O)OC)C(c2ccc(F)c(F)c2)N(C(=O)NCCN[C@H]2CC[C@H](c3ccccn3)CC2)C(=O)N1 (single isomer, unassigned; (+)) [Example 7, (+)-trans-6-(3,4-Difluorophenyl)-1-{N-[2-(4-(2-pyridyl)-cyclohexylamino)ethyl]}carboxamido-5-methoxycarbonyl-4-methoxymethyl-2-oxo-1,2,3,6-tetrahydropyrimidine hydrochloride] |  |  | 1120 nM | 3890 nM
CCC1=C(C(N)=O)C(c2ccc(F)cc2F)N(C(=O)NCCN[C@H]2CC[C@](C#N)(c3ccccc3)CC2)C(=O)N1 (single isomer, unassigned; (+)) [Example 3, (+)-cis-5-Carboxamido-6-(2,4-difluorophenyl)-1-{N-[2-(4-cyano-4-phenyl-cyclohexylamino)ethyl]}carboxamido-4-ethyl-2-oxo-1,2,3,6-tetrahydropyrimidine hydrochloride] |  |  | 100 nM | 240 nM
COC(=O)C1=C(C)NC(=O)N(C(=O)NCCN[C@H]2CC[C@](C#N)(c3ccccc3F)CC2)C1c1ccc(F)c(F)c1 (single isomer, unassigned; (+)) [Example 13, (+)-cis-6-(3,4-Difluorophenyl)-1-{N-[2-(4-cyano-4-(2-fluorophenyl)-cyclohexylamino)ethyl]}carboxamido-5-methoxycarbonyl-4-methyl-2-oxo-1,2,3,6-tetrahydropyrimidine hydrochloride] |  |  | 13.5 nM | 51.3 nM
COCC1=C(C(=O)OC)C(c2ccc(F)c(F)c2)N(C(=O)NCCN[C@H]2CC[C@](C(=O)OC)(c3ccccc3)CC2)C(=O)N1 (single isomer, unassigned; (+)) [Example 11, (+)-cis-6-(3,4-Difluorophenyl)-1-{N-[2-(4-methoxycarbonyl-4-phenyl-cyclohexylamino)ethyl]}carboxamido-5-methoxycarbonyl-4-methoxymethyl-2-oxo-1,2,3,6-tetrahydropyrimidine hydrochloride] |  |  | 27.5 nM | 126 nM
COCC1=C(C(=O)OC)C(c2ccc(F)c(F)c2)N(C(=O)NCCN[C@H]2CC[C@@](C#N)(c3ccccc3)CC2)C(=O)N1 (single isomer, unassigned; (+)) [Example 5, (+)-trans-6-(3,4-Difluorophenyl)-1-{N-[2-(4-cyano-4-phenyl-cyclohexylamino)ethyl]}carboxamido-5-methoxycarbonyl-4-methoxymethyl-2-oxo-1,2,3,6-tetrahydropyrimidine hydrochloride] |  |  | 26.9 nM | 123 nM
COCC1=C(C(=O)OC)C(c2ccc(F)c(F)c2)N(C(=O)NCCN[C@H]2CC[C@](C#N)(c3ccccn3)CC2)C(=O)N1 (single isomer, unassigned; (+)) [Example 14, (+)-cis-6-(3,4-Difluorophenyl)-1-{N-[2-(4-cyano-4-(2-pyridyl)-cyclohexylamino)ethyl]}carboxamido-5-methoxycarbonyl-4-methoxymethyl-2-oxo-1,2,3,6-tetrahydropyrimidine hydrochloride] |  |  | 282 nM | 1100 nM
COCC1=C(C(=O)OC)C(c2ccc(F)c(F)c2)N(C(=O)NCCN[C@H]2CC[C@](C#N)(c3ccccc3)CC2)C(=O)N1 (single isomer, unassigned; (+)) [Example 4, (+)-cis-6-(3,4-Difluorophenyl)-1-{N-[2-(4-cyano-4-phenyl-cyclohexylamino)ethyl]}carboxamido-5-methoxycarbonyl-4-methoxymethyl-2-oxo-1,2,3,6-tetrahydropyrimidine hydrochloride] |  |  | 18.6 nM | 100 nM
